According to article PMC5748833, “Synthesis and Biological Evaluation of Novel Hybrid Molecules Containing Purine, Coumarin and Isoxazoline or Isoxazole Moieties” (The Open Medicinal Chemistry Journal, 2017):

What was measured:
[1] = biological target: T1, electric eel acetylcholinesterase (eeAChE) (Electrophorus electricus, UniProt O42275); test: biochemical; assay type: biochemical; conditions: read-out: eeAChE IC50 μΜ
T1 construct: purchased Sigma
Text: 2.2.2.5 Inhibition Study on ChEs in vitro
In vitro inhibition of electric eel acetylcholinesterase (eeAChE; 463 U/mg, Sigma) and equine serum butyrylcholinesterase (esBChE; 13 U/mg, Sigma) was investigated with a 96-well plate procedure based on the classical Ellman’s spectrophotometric test, as already described.

[2] = Inhibition of linoleic acid lipid peroxidation (AAPH); conditions: 100 μM compound, 37°C
Procedure, shortened: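 Sodium linoleate oxidation in 0.05 M phosphate buffer, pH 7.4, at 37°C, initiated by AAPH, with test compounds added from DMSO stock. Conjugated diene hydroperoxide formation followed at 234 nm, with a DMSO-only control and Trolox as standard.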

rat monoamine oxidase A = biological target: T2, rat monoamine oxidase A (Rattus norvegicus, UniProt P21396); test: Inhibition of MAO-A (spectrofluorimetric method); assay type: biochemical; conditions: 10 μM compound
T2 construct: from tissue
T2 sequence (P21396 1-526): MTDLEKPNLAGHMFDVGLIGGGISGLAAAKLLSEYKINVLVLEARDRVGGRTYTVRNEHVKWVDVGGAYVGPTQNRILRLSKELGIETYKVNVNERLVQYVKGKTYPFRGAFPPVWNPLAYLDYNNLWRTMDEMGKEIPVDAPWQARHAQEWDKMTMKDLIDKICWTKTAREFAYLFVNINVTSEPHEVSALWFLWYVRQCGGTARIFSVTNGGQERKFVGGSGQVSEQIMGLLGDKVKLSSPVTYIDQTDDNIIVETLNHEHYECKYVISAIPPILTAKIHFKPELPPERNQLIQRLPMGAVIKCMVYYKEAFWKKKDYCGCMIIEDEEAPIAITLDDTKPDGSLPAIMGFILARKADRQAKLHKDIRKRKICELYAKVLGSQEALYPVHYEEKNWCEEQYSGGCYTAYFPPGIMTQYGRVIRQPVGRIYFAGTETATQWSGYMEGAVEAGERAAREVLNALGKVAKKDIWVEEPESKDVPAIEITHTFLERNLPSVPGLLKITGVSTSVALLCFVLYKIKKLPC
Text: 2.2.2.6 Inhibition Study on MAOs in vitro
Inhibition of rat monoamine oxidase A and B was studied by means of a spectrofluorimetric method as previously detailed.

[3] = Competition of the tested compounds with DMSO for hydroxyl radicals; conditions: 100 μM compound, Fe3+/ascorbic acid, 30 min, 37°C; 100 µM
Method: 2.2.2.2 Competition of the tested compounds with DMSO for hydroxyl radicals
The hydroxyl radicals generated by the Fe ^3+ /ascorbic acid system, were detected according to Nash, by the determination of formaldehyde produced from the oxidation of DMSO. The reaction mixture contained EDTA (0.1 mM), Fe ^3+ (167 μM), DMSO (33 mM) in phosphate buffer (50 mM, pH 7.4), the tested compounds (concentration 0.1mM) and ascorbic acid (10 mM). After 30 min of incubation (37°C) the reaction was stopped with CCl3COOH (17% w/v) (Table 5). Trolox was used as a standard.
Superoxide (O2^-.) anion and hydroxyl radical (^.OH) are free radical species of potential importance. In the acidic conditions of ischemic brain, O2^-. is probably protonated to give HO2^-. species. Iron released from damaged brain cells is more likely to be readily available to catalyze the generation of OH radicals. Among the ROS, the hydroxyl (^•OH) free radical is possibly the most toxic, as it reacts with a number of biological important molecules. Polyunsaturated fatty acids are found in high concentrations in the CNS, and are particularly vulnerable by free radicals. Thus, we tried to test the ability of our compounds to scavenge hydroxyl radicals. […] All the derivatives of series 13 (except of 13i) present high antioxidant activity (80-100%) which is not able to be correlated with any specific structural characteristic since all contain a coumarin, a purine and an isoxazolyl moiery. […] It seems that the overall molar configuration influences the response. However, antioxidants with hydrophilic or lipophilic character are both needed to act as radical scavengers in the aqueous phase or as chain-breaking antioxidants in biological membranes.

T1 sequence (O42275 24-633): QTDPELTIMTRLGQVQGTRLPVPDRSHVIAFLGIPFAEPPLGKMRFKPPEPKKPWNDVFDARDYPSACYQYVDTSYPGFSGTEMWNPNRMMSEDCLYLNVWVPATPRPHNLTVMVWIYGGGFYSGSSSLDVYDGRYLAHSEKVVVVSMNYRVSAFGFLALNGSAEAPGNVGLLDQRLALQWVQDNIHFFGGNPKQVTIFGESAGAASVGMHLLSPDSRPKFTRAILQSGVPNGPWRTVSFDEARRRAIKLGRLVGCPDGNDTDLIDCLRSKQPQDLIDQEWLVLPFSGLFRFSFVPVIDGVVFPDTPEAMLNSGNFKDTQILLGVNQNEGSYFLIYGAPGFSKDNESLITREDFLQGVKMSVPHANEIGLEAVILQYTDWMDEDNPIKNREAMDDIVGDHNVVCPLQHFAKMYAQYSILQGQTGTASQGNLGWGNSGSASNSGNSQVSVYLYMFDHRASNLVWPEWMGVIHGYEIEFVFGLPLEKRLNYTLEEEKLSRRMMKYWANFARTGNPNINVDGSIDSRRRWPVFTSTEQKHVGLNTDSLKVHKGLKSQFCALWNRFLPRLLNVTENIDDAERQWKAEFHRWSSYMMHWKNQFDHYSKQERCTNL

Compound | IC50 [1] [µM] | LP % @ 100μΜ (inhibition of lipid peroxidation) [2] | MAO-A (%) @ 10μΜ (rat monoamine oxidase A) | ∙ΟΗ % @ 100μΜ (hydroxyl radical scavenging, percent inhibition of formaldehyde production) [3]
O=c1cc(OCC2CC(Cn3cnc4c(N5CCCCC5)ncnc43)=NO2)c2ccccc2o1 (stereo not drawn) [4f] | 1.4 | 62% | no | did not present any activity and no
Cc1cc(=O)oc2ccc(OCC3=NOC(Cn4cnc5c(Cl)ncnc54)C3)cc12 (stereo not drawn) [11b] | 5.9 | no | 15% | did not present any activity and no
O=c1cc(OCc2cc(Cn3cnc4c(N5CCOCC5)ncnc43)no2)c2ccccc2o1 [13i] | 5 | 74% | 6% | did not present any activity and no
